Where a name gives a salt, the structure may show the parent alone.
Columns and labels:
Type in all cases: cell-based, human
Settings in all cases: HiBiT knock-in K562 cells, 24 hours, top dose 10 μM
MYB = assay: HiBiT protein abundance assay, MYB (K562 HiBiT knock-in)
How it was run: (§1)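 Tagged-protein levels were measured as HiBiT/LgBiT luminescence in lysed K562 knock-in cells exposed to serially diluted compound (up to 10 μM final) for 24 hours. A four-parameter logistic regression of control-normalized signal yielded the IC50.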

HTT = assay: HiBiT protein abundance assay, HTT (K562 HiBiT knock-in)
How it was run: as §1

Target C = assay: HiBiT protein abundance assay, Target C (K562 HiBiT knock-in)
How it was run: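 K562 HiBiT knock-in cells (10000/well) were treated 24 h at 37° C with a 10-point 3-fold dilution series (top 10 μM final, ≤0.25% DMSO). HiBiT luminescence was read after lytic LgBiT detection. Percent response used unmodified K562 and DMSO-treated knock-in controls, and IC50 came from a four-parameter fit at 50% of untreated.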

**Q.** Which results are given for `Cc1nc2c(C)c(O)c(-c3ccc4cc(N5CC[C@H](NC6CC6)C5)ncc4n3)cc2o1` [Compound 441, 6-{6-[(3S)-3-(cyclopropylamino)pyrrolidin-1-yl]-1,7-naphthyridin-2-yl}-2,4-dimethyl-1,3-benzoxazol-5-ol]?
**A.** IC50 (MYB): 1 to 10 µM; IC50 (HTT): 0.1 to 1 µM; IC50 (Target C): 0.1 to 1 µM

**Q.** With `Cn1cc2cc(-c3ccc4nc(C5CCNC6(CC6)C5)ncc4n3)c(O)cc2n1` (stereo not drawn) [Compound 448, 5-(2-{4-azaspiro[2.5]octan-7-yl}pyrido[3,2-d]pyrimidin-6-yl)-2-methylindazol-6-ol] as the compound, how does the IC50 (MYB) read?
**A.** The IC50 was 0.1 to 1 µM.

**Q.** What about the IC50 (HTT) of the same compound?
**A.** Its IC50 is 0.1 to 1 µM.

**Q.** What about the IC50 (Target C) of the same compound?
**A.** Its IC50 is 0.1 to 1 µM.

**Q.** `Cn1cc2cc(-c3ccc4cc(N5CCC(NC(C)(C)C)C5)ncc4n3)c(O)cc2n1` (stereo not drawn) [Compound 449, 5-{6-[3-(tert-butylamino)pyrrolidin-1-yl]-1,7-naphthyridin-2-yl}-2-methylindazol-6-ol] was tested. Which IC50 (MYB) did it give?
**A.** The IC50 was 0.1 to 1 µM.

**Q.** And the IC50 (HTT)?
**A.** The IC50 was 0.1 to 1 µM.

**Q.** And the IC50 (Target C)?
**A.** The IC50 was 0.1 to 1 µM.

**Q.** How did the IC50 (MYB) turn out when `Cc1nc2cc(O)c(-c3ccc4cc(N5CC[C@H](NC(C)(C)C)C5)ncc4n3)cc2o1` [Compound 450] was run?
**A.** The IC50 was 1 to 10 µM.

**Q.** And the IC50 (HTT)?
**A.** Its IC50 is 1 to 10 µM.

**Q.** And the IC50 (Target C)?
**A.** The IC50 was 1 to 10 µM.

**Q.** `Cc1c(O)c(-c2cc(Cl)c3cc(N4CCNCC4)cc(C)c3n2)cc2cn(C)nc12` [Compound 482, 5-[4-chloro-8-methyl-6-(piperazin-1-yl)577yrrolidi-2-yl]-2,7-dimethylindazol-6-ol hydrochloride] was tested. Which IC50 (MYB) did it give?
**A.** Its IC50 is less than 0.1 µM.

**Q.** And the IC50 (HTT)?
**A.** The IC50 was 0.1 to 1 µM.

**Q.** And the IC50 (Target C)?
**A.** The IC50 was 0.1 to 1 µM.

**Q.** Which results are given for `Cc1cc2nc(-c3cc4cn(C)nc4c(C)c3O)cc(Cl)c2cc1N1CCNCC1` [Compound 484, 5-[4-chloro-7-methyl-6-(piperazin-1-yl)586yrrolidi-2-yl]-2,7-dimethylindazol-6-ol]?
**A.** IC50 (MYB): 0.1 to 1 µM; IC50 (HTT): 1 to 10 µM; IC50 (Target C): 1 to 10 µM

**Q.** How did the IC50 (MYB) turn out when `CNC1CCN(c2cc3c(Cl)cc(-c4cc5cn(C)nc5c(C)c4O)nc3cc2C)C1` (stereo not drawn) [Compound 486, 5-{4-chloro-7-methyl-6-[3-(methylamino)pyrrolidin-1-yl]quinolin-2-yl}-2,7-dimethylindazol-6-ol] was run?
**A.** Its IC50 is 0.1 to 1 µM.

**Q.** What about the IC50 (HTT) of the same compound?
**A.** Its IC50 is 1 to 10 µM.

**Q.** What about the IC50 (Target C) of the same compound?
**A.** Its IC50 is 1 to 10 µM.
